Residue numbers refer to the chain shown, from its start. Several values for one entry are separate records, joined by “and”; a condition that tells them apart may be missing. Identical values can stand only once.
What was measured:
M2R = molecular target: T1, M2R (Homo sapiens, UniProt P08172); experiment: biochemical; assay type: binding; design: expressed in transfected cells
T1 sequence (P08172 1-466): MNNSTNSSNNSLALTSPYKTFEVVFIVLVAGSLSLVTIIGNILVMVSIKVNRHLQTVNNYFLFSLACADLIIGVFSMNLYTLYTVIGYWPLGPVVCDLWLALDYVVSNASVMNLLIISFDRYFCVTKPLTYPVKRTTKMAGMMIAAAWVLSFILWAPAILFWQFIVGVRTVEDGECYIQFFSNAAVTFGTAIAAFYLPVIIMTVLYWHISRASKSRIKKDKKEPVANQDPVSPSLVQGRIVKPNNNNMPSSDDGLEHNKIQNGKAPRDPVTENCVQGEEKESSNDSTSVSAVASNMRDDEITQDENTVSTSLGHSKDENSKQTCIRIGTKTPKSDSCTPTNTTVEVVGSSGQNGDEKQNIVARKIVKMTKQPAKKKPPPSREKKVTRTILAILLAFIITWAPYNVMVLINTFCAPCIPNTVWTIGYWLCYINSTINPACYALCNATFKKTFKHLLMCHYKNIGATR
Procedure: Purified M2R receptor was reconstituted into high-density lipoprotein (HDL) particles constituting apolipoprotein A1(APOA1) and mixture of POPG: POPC lipids with 3:2 (mol:mol)ratio as previously described. […] Membranes or HDL particles were separated from excess [^3H]-NMS by Whatman GF/B filters using a Brandel 48-well harvester. The bound radioligand were read on a liquid scintillation counter (MicroBeta Jet, PerkinElmer). Data were analyzed by GraphPad Prism 9.2.0.

human, wild-type M2R = molecular target: T2, human, wild-type M2R (Homo sapiens, UniProt P08172); experiment: NanoBiT-G-protein (GoA) dissociation assay, wild-type M2R, HEK293A cells; assay type: cell-based; details: for NanoBiT-GoA dissociation signal, Mean (Veh = 1.000): n = 4
T2 construct: expressed in transfected cells; host or cells: HEK293A
T2 sequence (P08172 1-466): T1 sequence (P08172 1-466)
Procedure: Plasmid transfection for HEK293A cells (Thermo Fisher Scientific) was performed by combining 25 µl (volume is per 10-cm culture dish) of polyethylenimine solution (1 mg/mL) and a mixture of plasmids each encoding the large fragment (LgBiT)-containing the GαoA subunit (500 ng), the small fragment (SmBiT)-fused Gγ2 subunit with the C68S mutation (2.5 µg) and the untagged Gβ1 subunit (2.5 µg), along with a human, wild-type M2R (1 µg; containing N-terminal HA-derived signal sequence followed by the FLAG-epitope tag). After an incubation for one day, the transfected cells were harvested, pelleted with centrifugation, and suspended in 9 ml of Hank’s balanced saline solution (HBSS) containing 0.01% bovine serum albumin (BSA fatty acid–free grade, SERVA) and 5 mM HEPES (pH 7.4) (assay buffer). The cell suspension was dispensed in a white 96-well plate at a volume of 70 µl per well and mixed with 20 µl of 50 µM coelenterazine (Carbosynth) diluted in the assay buffer. After 2 h incubation at room temperature, the plate was measured for baseline luminescence (SpectraMax L, Molecular Devices) and 10 µl of titrated concentrations of LY2119620 diluted in the assay buffer were added. […] Kinetics data points from 5 min to 10 min were averaged and normalized to the initial count and used as a G-protein dissociation index. […] The G-protein dissociation signals were fitted to a four-parameter sigmoidal concentration-response curve (GraphPad Prism8). For each experiment, we calculated Emax by normalizing Span to the LY2119620-free condition and ∆pEC50 by subtracting pEC50 of the LY2119620-free condition performed in parallel and used the values to denote allosteric modulator activity.

Mock = experiment: NanoBiT-GoA dissociation assay, Mock-transfected cells (control); assay type: cell-based
M2R L129^34.51A mutant = molecular target: T3, M2R L129^34.51A mutant (Homo sapiens, UniProt P08172, L129A); experiment: NanoBiT-GoA dissociation assay, L129A mutant M2R
T3 sequence (P08172 1-466 L129A): T1 sequence (P08172 1-466) with L129A
Procedure: Plasmid transfection for HEK293A cells (Thermo Fisher Scientific) was performed by combining 25 µl (volume is per 10-cm culture dish) of polyethylenimine solution (1 mg/mL) and a mixture of plasmids each encoding the large fragment (LgBiT)-containing the GαoA subunit (500 ng), the small fragment (SmBiT)-fused Gγ2 subunit with the C68S mutation (2.5 µg) and the untagged Gβ1 subunit (2.5 µg), along with a human, wild-type M2R (1 µg; containing N-terminal HA-derived signal sequence followed by the FLAG-epitope tag). After an incubation for one day, the transfected cells were harvested, pelleted with centrifugation, and suspended in 9 ml of Hank’s balanced saline solution (HBSS) containing 0.01% bovine serum albumin (BSA fatty acid–free grade, SERVA) and 5 mM HEPES (pH 7.4) (assay buffer). The cell suspension was dispensed in a white 96-well plate at a volume of 70 µl per well and mixed with 20 µl of 50 µM coelenterazine (Carbosynth) diluted in the assay buffer. […] Kinetics data points from 5 min to 10 min were averaged and normalized to the initial count and used as a G-protein dissociation index. For the mutant study, the cell culture and the transfection mixture were scaled down to a 6-cm dish (4 ml culture media) and the transfected cells were suspended in 4 ml of the assay buffer and seeded in the 96-well plate at a volume of 80 µL. The G-protein dissociation signals were fitted to a four-parameter sigmoidal concentration-response curve (GraphPad Prism8). For each experiment, we calculated Emax by normalizing Span to the LY2119620-free condition and ∆pEC50 by subtracting pEC50 of the LY2119620-free condition performed in parallel and used the values to denote allosteric modulator activity. Similarly, for the mutant study, we calculated ∆pEC50 by subtracting pEC50 of the WT (1:1) condition performed in parallel.

M2R and GoA = molecular target: T4, M2R and GoA (Homo sapiens, UniProt P08172); experiment: GTPase-Glo assay (GTP turnover) with purified M2R and GoA; assay type: biochemical; details: for Residual GTP (%): 90 min, normalized to GoA alone; for GTP-turnover, Fig. 1c (GTPase-Glo luminescence): 100 μM ACh or 10 μM Ixo, M2R-GoA
T4 construct: FLAG (N); 8xHis (C); made in house; host or cells: Sf9 insect cells (receptor)
Procedure: The receptors for GTPase-Glo^TM assay were expressed and purified as described above and frozen at −80 °C before use. […] The GTPase reaction was incubated at room temperature (22–25 °C) for different times (15–90 min). […] After incubation, 5 μL reconstituted 1xGTPase-Glo^TM Reagent (Promega) was added to the completed GTPase reaction, mixed briefly and incubated with shaking for 30 min at room temperature (22–25 °C) to convert the remaining GTP into ATP. Then 10 μL Detection Reagent (Promega) was added to the system and incubated for 5-10 min at room temperature (22–25 °C) to convert the ATP into luminescent signals. Luminescence intensity was quantified using a Multimode Plate Reader (PerkinElmer) luminescence counter.

T4 sequence (P59768 2-68, one chain of several): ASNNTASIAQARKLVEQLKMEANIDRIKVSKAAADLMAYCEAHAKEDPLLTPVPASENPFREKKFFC
T4 sequence (P09471 2-354, one chain of several, further chain): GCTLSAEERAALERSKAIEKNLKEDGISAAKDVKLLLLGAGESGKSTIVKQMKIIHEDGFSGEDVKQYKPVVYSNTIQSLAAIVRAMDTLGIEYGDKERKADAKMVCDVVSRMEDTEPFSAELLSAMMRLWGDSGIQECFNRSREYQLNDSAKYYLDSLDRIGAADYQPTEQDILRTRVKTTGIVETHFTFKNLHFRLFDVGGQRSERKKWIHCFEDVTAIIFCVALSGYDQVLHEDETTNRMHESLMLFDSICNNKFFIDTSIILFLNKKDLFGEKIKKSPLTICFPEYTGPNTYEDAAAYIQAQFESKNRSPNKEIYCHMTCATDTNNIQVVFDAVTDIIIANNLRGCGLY
T4 sequence (P62873 whole entry, one chain of several, further chain): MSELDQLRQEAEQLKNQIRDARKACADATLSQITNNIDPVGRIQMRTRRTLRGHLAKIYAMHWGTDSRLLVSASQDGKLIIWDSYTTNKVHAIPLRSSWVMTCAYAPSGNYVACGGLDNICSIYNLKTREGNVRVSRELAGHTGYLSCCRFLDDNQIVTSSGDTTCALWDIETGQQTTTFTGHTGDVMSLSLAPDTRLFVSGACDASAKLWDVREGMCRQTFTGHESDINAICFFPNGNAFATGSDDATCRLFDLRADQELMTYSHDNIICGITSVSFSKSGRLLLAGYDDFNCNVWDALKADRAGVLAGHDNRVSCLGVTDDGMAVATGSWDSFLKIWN

CC(=O)OCC[N+](C)(C)C [ACh, acetylcholine]
increase of affinity on addition of GoA (M2R; M2R in HDL particles): ~ 65 fold
competition curve data, Fig. 1b ([3H]-NMS binding) (M2R; log[M] -4, without GoA): 5.782 and 5.65 and 7.077
competition curve data, Fig. 1b ([3H]-NMS binding) (M2R; log[M] -5, +GoA): 8.6818 and 10.1951 and 7.089
competition curve data, Fig. 1b ([3H]-NMS binding) (M2R; log[M] -5, without GoA): 30.6813 and 33.2587 and 33.4266
competition curve data, Fig. 1b ([3H]-NMS binding) (M2R; log[M] -6, +GoA): 19.1734 and 19.6734 and 19.2354
competition curve data, Fig. 1b ([3H]-NMS binding) (M2R; log[M] -6, without GoA): 75.6364 and 71.4046
competition curve data, Fig. 1b ([3H]-NMS binding) (M2R; log[M] -7, +GoA): 35.8423 and 48.5862 and 43.4886
competition curve data, Fig. 1b ([3H]-NMS binding) (M2R; log[M] -7, without GoA): 93.5585 and 94.8412 and 97.6703
competition curve data, Fig. 1b ([3H]-NMS binding) (M2R; log[M] -8, +GoA): 63.401 and 72.72 and 79.9283
competition curve data, Fig. 1b ([3H]-NMS binding) (M2R; log[M] -8, without GoA): 87.5165 and 90.6813 and 92.0839
competition curve data, Fig. 1b ([3H]-NMS binding) (M2R; log[M] -9, +GoA): 85.6233 and 86.2605 and 91.0793
competition curve data, Fig. 1b ([3H]-NMS binding) (M2R; log[M] -9, without GoA): 98.6534 and 93.3786 and 102.25
competition curve data, Fig. 1b ([3H]-NMS binding) (M2R; log[M] -10, +GoA): 98.2875 and 107.686 and 94.0263
competition curve data, Fig. 1b ([3H]-NMS binding) (M2R; log[M] -10, without GoA): 99.5165 and 100.667 and 99.8162
binding affinity lower than Ixo (M2R; purified M2R reconstituted in HDL particles): ~ 90 fold
∆pEC50 (human, wild-type M2R; WT (1:1), reference): 0.000
NanoBiT-GoA dissociation signal, Mean (Veh = 1.000) (human, wild-type M2R; WT (1:1), ACh Log [M] -4): 0.337
NanoBiT-GoA dissociation signal, Mean (Veh = 1.000) (human, wild-type M2R; WT (1:1), ACh Log [M] -5): 0.351
NanoBiT-GoA dissociation signal, Mean (Veh = 1.000) (human, wild-type M2R; WT (1:1), ACh Log [M] -6): 0.394
NanoBiT-GoA dissociation signal, Mean (Veh = 1.000) (human, wild-type M2R; WT (1:1), ACh Log [M] -7): 0.558
NanoBiT-GoA dissociation signal, Mean (Veh = 1.000) (human, wild-type M2R; WT (1:1), ACh Log [M] -8): 0.840
NanoBiT-GoA dissociation signal, Mean (Veh = 1.000) (human, wild-type M2R; WT (1:1), ACh Log [M] -9): 0.978
∆pEC50 (human, wild-type M2R; WT (1:2)): -0.277 and -0.205 and -0.364 and -0.275
NanoBiT-GoA dissociation signal, Mean (Veh = 1.000) (human, wild-type M2R; WT (1:2), ACh Log [M] -4): 0.345
NanoBiT-GoA dissociation signal, Mean (Veh = 1.000) (human, wild-type M2R; WT (1:2), ACh Log [M] -5): 0.355
NanoBiT-GoA dissociation signal, Mean (Veh = 1.000) (human, wild-type M2R; WT (1:2), ACh Log [M] -6): 0.427
NanoBiT-GoA dissociation signal, Mean (Veh = 1.000) (human, wild-type M2R; WT (1:2), ACh Log [M] -7): 0.636
NanoBiT-GoA dissociation signal, Mean (Veh = 1.000) (human, wild-type M2R; WT (1:2), ACh Log [M] -8): 0.898
NanoBiT-GoA dissociation signal, Mean (Veh = 1.000) (human, wild-type M2R; WT (1:2), ACh Log [M] -9): 0.988
NanoBiT-GoA dissociation signal, Mean (Veh = 1.000) (Mock; ACh Log [M] -4, n = 3): 0.999
NanoBiT-GoA dissociation signal, Mean (Veh = 1.000) (Mock; ACh Log [M] -5, n = 3): 0.997
NanoBiT-GoA dissociation signal, Mean (Veh = 1.000) (Mock; ACh Log [M] -6, n = 3): 0.997
NanoBiT-GoA dissociation signal, Mean (Veh = 1.000) (Mock; ACh Log [M] -7, n = 3): 0.998
NanoBiT-GoA dissociation signal, Mean (Veh = 1.000) (Mock; ACh Log [M] -8, n = 3): 1.007
NanoBiT-GoA dissociation signal, Mean (Veh = 1.000) (Mock; ACh Log [M] -9, n = 3): 1.008
NanoBiT-GoA dissociation signal, Mean (Veh = 1.000) (Mock; ACh Log [M] -10, n = 3): 1.011
∆pEC50 (M2R L129^34.51A mutant): -0.530 and -0.558 and -0.440
NanoBiT-GoA dissociation signal, Mean (Veh = 1.000) (M2R L129^34.51A mutant; ACh Log [M] -4, n = 3): 0.350
NanoBiT-GoA dissociation signal, Mean (Veh = 1.000) (M2R L129^34.51A mutant; ACh Log [M] -5, n = 3): 0.368
NanoBiT-GoA dissociation signal, Mean (Veh = 1.000) (M2R L129^34.51A mutant; ACh Log [M] -6, n = 3): 0.470
NanoBiT-GoA dissociation signal, Mean (Veh = 1.000) (M2R L129^34.51A mutant; ACh Log [M] -8, n = 3): 0.926
NanoBiT-GoA dissociation signal, Mean (Veh = 1.000) (M2R L129^34.51A mutant; ACh Log [M] -9, n = 3): 0.991
NanoBiT-GoA dissociation signal, Mean (Veh = 1.000) (M2R L129^34.51A mutant; ACh Log [M] -10, n = 3): 0.994
Residual GTP (%) (M2R and GoA; +DMSO): 45.3131% and 35.9349% and 31.3573% and 30.3217%
Residual GTP (%) (M2R and GoA; +LY2119620 (100 μM)): 63.4937% and 52.5673% and 44.2408% and 50.614% and 40.1818%
GTP turnover rate and efficacy (M2R and GoA; agonist-bound M2R): much lower GTP turnover rate and efficacy than Ixo-bound M2R
GTP-turnover, Fig. 1c (GTPase-Glo luminescence) (M2R and GoA; time 15 min): 580068 and 653066 and 555333 and 703107
GTP-turnover, Fig. 1c (GTPase-Glo luminescence) (M2R and GoA; time 30 min): 338018 and 388059 and 371258 and 437553
GTP-turnover, Fig. 1c (GTPase-Glo luminescence) (M2R and GoA; time 45 min): 365372 and 350617 and 319511 and 370440
GTP-turnover, Fig. 1c (GTPase-Glo luminescence) (M2R and GoA; time 60 min): 469821 and 332109 and 488525 and 361230
GTP-turnover, Fig. 1c (GTPase-Glo luminescence) (M2R and GoA; time 90 min): 354237 and 250414 and 339305 and 252170
